Columns and labels:
[1] = target: T1, human VDR (Homo sapiens, UniProt P11473); experiment: Evaluation of VDR transcription activity in human osteoblasts (HOS cells), luciferase reporter; conditions: Activity (EC50, VDR transcription activity), HOS cells transfected with human VDR, human RXRα and DR3 luciferase reporter; 21 hours
T1 sequence (P11473 1-427): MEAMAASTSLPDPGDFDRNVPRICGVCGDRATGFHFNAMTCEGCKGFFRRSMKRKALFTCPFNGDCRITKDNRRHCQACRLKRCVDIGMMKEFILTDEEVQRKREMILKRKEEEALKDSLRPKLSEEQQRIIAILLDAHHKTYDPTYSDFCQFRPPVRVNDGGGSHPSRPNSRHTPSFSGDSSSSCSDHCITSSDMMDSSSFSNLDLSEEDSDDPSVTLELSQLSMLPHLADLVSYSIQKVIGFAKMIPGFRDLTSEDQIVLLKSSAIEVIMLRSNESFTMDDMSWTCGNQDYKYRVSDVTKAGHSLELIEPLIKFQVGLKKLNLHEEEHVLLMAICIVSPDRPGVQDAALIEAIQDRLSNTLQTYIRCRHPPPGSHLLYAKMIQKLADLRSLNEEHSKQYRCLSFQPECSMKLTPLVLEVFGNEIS
T1 sequence (P19793 1-462 partner): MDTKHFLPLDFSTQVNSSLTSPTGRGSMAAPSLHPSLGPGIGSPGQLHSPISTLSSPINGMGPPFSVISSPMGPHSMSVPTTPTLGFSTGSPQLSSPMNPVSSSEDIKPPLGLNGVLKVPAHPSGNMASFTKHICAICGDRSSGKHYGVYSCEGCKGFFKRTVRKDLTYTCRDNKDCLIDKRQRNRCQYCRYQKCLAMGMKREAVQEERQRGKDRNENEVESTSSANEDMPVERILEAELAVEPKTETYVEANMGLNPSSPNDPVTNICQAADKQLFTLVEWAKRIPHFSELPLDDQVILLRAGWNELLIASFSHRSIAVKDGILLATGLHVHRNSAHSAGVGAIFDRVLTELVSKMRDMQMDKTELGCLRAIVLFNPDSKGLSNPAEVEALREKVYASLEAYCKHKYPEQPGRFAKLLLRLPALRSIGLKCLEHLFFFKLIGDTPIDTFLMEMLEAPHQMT

[2] = test system: rat oligodendrocyte progenitor cells; experiment: Promotive activity of rat oligodendrocyte progenitor cell differentiation-1 (MBP gene expression, mRNA); assay type: cell-based; conditions: Rattus norvegicus, Oligodendrocyte progenitor cell, 96 h, read-out: promotive activity at T3 base (MBP gene expression; DMSO 0%, T3 100%), 4 days, MBP/β actin mRNA
Experimental: Regarding vitamin D derivatives, which was confirmed to act on the vitamin D receptor (VDR) in Example 352, the promotive activity of oligodendrocyte progenitor cell (OPC) differentiation was evaluated by MBP gene expression (mRNA).
A forebrain obtained from SD rat (Charles River Japan, 1 day old) was crushed with 70 μm Cell Strainer (Falcon #352350), and a cell suspension was prepared by collecting the cells in oligodendrocyte progenitor cell separation medium (20% FBS/2 mM Glutamax (Gibco #35050-061)/i mM sodium pyruvate (Gibco #11360-070)/1% penicillin-streptomycin (Invitrogen #15140-122)/DMEM (Gibco #11960-044)). The cell suspension was seeded in a poly-D-lysine coated T75 flask (Thermo Fisher Scientific #132704) and cultured for about 2 weeks. After culturing, the flask was shaken using a rotary shaker ([…] #WB-101SRC) for about 1 hour (37° C., 100 rpm), and the supernatant was discarded to remove microglia. Subsequently, oligodendrocyte progenitor cell separation medium was added to the flask, and the mixture was similarly shaken for about 22 hours (37° C., 200 rpm), and the supernatant was collected to prepare oligodendrocyte progenitor cells.
The oligodendrocyte progenitor cell prepared was suspended in a differentiation medium (2% B27 (Thermo Fisher Scientific, Inc. #17504-044)/1% penicillin-streptomycin (Invitrogen Corporation #15140-122)/10 ng/mL CNTF (PeproTech Inc. #AF-450-13)/DMEM (Gibco #11960-044)), and seeded on a 96-well plate coated with poly-L-ornithine (FUJIFILM Wako Pure Chemical Corporation #163-27421) under the condition of 0.65×10^4 cells/well, and on a 384-well plate under the condition of 2×10^3 cells/well using an automatic dispensing system (LABCYTE #Echo555). […] After culturing, the cells seeded on the 96-well plate were subjected to immunostaining against MBP using following methods: fixation (4% paraformaldehyde solution, 30 minutes, room temperature), PBS washing, membrane permeation treatment (0.1% Trion X-100 (SIGMA #X100-100ML)/PBS, 3 minutes, room temperature), blocking (3% BSA (SIGMA #A9647-10G)/PBS, 1 hour, room temperature), primary antibody reaction (MBP antibody (abcam plc #ab40390), 2.5 μg/mL, 4° C., 24 hours), PBS washing, secondary antibody reaction (Alexa488 anti-rabbit IgG (Thermo Fisher Scientific, Inc. #A-11034), 5 μg/mL, room temperature, 1 hour), PBS washing, and nuclear staining (Hoechst33342 (DOJINDO #NU043), 10 μg/mL, room temperature, 5 minutes). Subsequently, images of each well were acquired using a fluorescence microscope (KEYENCE CORPORATION #BZ-X800), the number of MBP-positive cells and Hoechst 33342-positive cells were measured using an image analysis application (KEYENCE CORPORATION #BZ-X800 Analyzer), and then the ratio (the number of MBP-positive cells/the number of Hoechst33342-positive cells) was calculated. The cells seeded on the 384-well plate were subjected to real-time PCR using Cells-to-CT 1-Step TaqMan Kit (Thermo Fisher Scientific, Inc. #A25602) and QuantStudio 12K Flex Real-Time PCR System (Thermo Fisher Scientific, Inc. #4472380). The experiment was performed in accordance with the protocol attached to the kit. MBP (Thermo Fisher Scientific, Inc. #Assay ID Rn00690616_ml) and β actin (Thermo Fisher Scientific, Inc. #Assay ID Rn00667869_ml) were used as primers, and the expression levels of each were measured and the ratio (MBP/β actin) was calculated.

Row | SMILES | EC50 [1] | activation at 1 µM [2]
1 | C=C1[C@H](O)CC(=C/C=C2\CCC[C@]3(C)[C@@H]([C@H](C)CN4CC[C@@H](CCC(F)F)C4)CC[C@@H]23)C[C@H]1O [Compound B062, (1R,3R)-5-(2-((1R,3aS,7aR,E)-1-((S)-1-((R)-3-(3,3-difluoropropyl)pyrrolidin-1-yl)propan-2-yl)-7a-methyloctahydro-4H-inden-4-ylidene)ethylidene)-2-methylenecyclohexane-1,3-diol] | 10 to 100 nM | ≥ 20%
2 | C=C1/C(=C\C=C2/CCC[C@]3(C)[C@@H]([C@H](C)CN4CC[C@H](OC(F)F)C4)CC[C@@H]23)C[C@@H](O)C[C@@H]1O [Compound B047, (1R,3S,Z)-5-(2-((1R,3aS,7aR,E)-1-((S)-1-((S)-3-(difluoromethoxy)pyrrolidin-1-yl)propan-2-yl)-7a-methyloctahydro-4H-inden-4-ylidene)ethylidene)-4-methylenecyclohexane-1,3-diol] | 10 to 100 nM | ≥ 20%
3 | C=C1C(O)CC(=C/C=C2\CCC[C@]3(C)[C@@H]([C@H](C)CN4CC[C@](C)(O)C4)CC[C@@H]23)C[C@H]1O (stereo in doubt) [Compound B073, (1R,3S)-5-(2-((1R,3aS,7aR,E)-1-((S)-1-((S)-3-hydroxy-3-methylpyrrolidin-1-yl)propan-2-yl)-7a-methyloctahydro-4H-inden-4-ylidene)ethylidene)-2-methylenecyclohexane-1,3-diol] | 1 to 10 nM | ≥ 20%
4 | C=C1[C@H](O)CC(=C/C=C2\CCC[C@]3(C)[C@@H]([C@H](C)CCN4C[C@@H](C)OC[C@@H]4C)CC[C@@H]23)C[C@H]1O [Compound D038, (1R,3R)-5-(2-((1R,3aS,7aR,E)-1-((R)-4-((2R,5S)-2,5-dimethylmorpholino)butan-2-yl)-7a-methyloctahydro-4H-inden-4-ylidene)ethylidene)-2-methylenecyclohexane-1,3-diol] | – | ≥ 20%
5 | C=C1/C(=C\C=C2/CCC[C@]3(C)[C@@H]([C@H](C)CN4CCC[C@H](C(C)(F)F)C4)CC[C@@H]23)C[C@@H](O)[C@H](C)[C@@H]1O [Compound C054, (1R,2S,3S,Z)-5-(2-((1R,3aS,7aR,E)-1-((S)-1-((S)-3-(1,1-difluoroethyl)piperidin-1-yl)propan-2-yl)-7a-methyloctahydro-4H-inden-4-ylidene)ethylidene)-2-methyl-4-methylenecyclohexane-1,3-diol] | 10 to 100 nM | ≥ 20%
6 | C=C1/C(=C\C=C2/CCC[C@]3(C)[C@@H]([C@H](C)CCN4CCO[C@H](C)C4)CC[C@@H]23)C[C@@H](O)CC1O (stereo in doubt) [Compound D047, (1R,3R,Z)-5-(2-((1R,3aS,7aR,E)-7a-methyl-1-((R)-4-((R)-2-methylmorpholino)butan-2-yl)octahydro-4H-inden-4-ylidene)ethylidene)-4-methylenecyclohexane-1,3-diol] | – | ≥ 20%
7 | C=C1/C(=C\C=C2/CCC[C@]3(C)[C@@H]([C@H](C)CCN4CCO[C@@H](C(F)F)C4)CC[C@@H]23)C[C@@H](O)C[C@@H]1O [Compound D037, (1R,3 S,Z)-5-(2-((1R,3aS,7aR,E)-1-((R)-4-((R)-2-(difluoromethyl)morpholino)butan-2-yl)-7a-methyloctahydro-4H-inden-4-ylidene)ethylidene)-4-methylenecyclohexane-1,3-diol] | – | ≥ 20%
8 | C=C1/C(=C\C=C2/CCC[C@]3(C)[C@@H]([C@H](C)CCN4CCO[C@@H](C)C4)CC[C@@H]23)C[C@@H](O)CC1O (stereo in doubt) [Compound D048, (1R,3R,Z)-5-(2-((1R,3aS,7aR,E)-7a-methyl-1-((R)-4-((S)-2-methylmorpholino)butan-2-yl)octahydro-4H-inden-4-ylidene)ethylidene)-4-methylenecyclohexane-1,3-diol] | – | ≥ 20%

Continued, in another order:

Row | EC50 [1] | SMILES | activation at 1 µM [2]
9 | 10 to 100 nM | C=C1[C@H](O)CC(=C/C=C2\CCC[C@]3(C)[C@@H]([C@H](C)CCN4CCO[C@@H](C)C4)CC[C@@H]23)C[C@H]1O [Compound D025, (1R,3R)-5-(2-((1R,3aS,7aR,E)-7a-methyl-1-((R)-4-((S)-2-methylmorpholino)butan-2-yl)octahydro-4H-inden-4-ylidene)ethylidene)-2-methylenecyclohexane-1,3-diol] | ≥ 20%
10 | 1 to 10 nM | C=C1[C@H](O)CC(=C/C=C2\CCC[C@]3(C)[C@@H]([C@H](C)CN4CCO[C@H](C(F)F)C4)CC[C@@H]23)C[C@H]1O [Compound D007, (1R,3R)-5-(2-((1R,3aS,7aR,E)-1-((S)-1-((S)-2-(difluoromethyl)morpholino)propan-2-yl)-7a-methyloctahydro-4H-inden-4-ylidene)ethylidene)-2-methylenecyclohexane-1,3-diol] | ≥ 20%
11 | 1 to 10 nM | C=C1[C@H](O)CC(=C/C=C2\CCC[C@]3(C)[C@@H]([C@H](C)CCN4CCOC(C)(C)C4)CC[C@@H]23)C[C@H]1O [Compound D029, (1R,3R)-5-(2-((1R,3aS,7aR,E)-1-((R)-4-(2,2-dimethylmorpholino)butan-2-yl)-7a-methyloctahydro-4H-inden-4-ylidene)ethylidene)-2-methylenecyclohexane-1,3-diol] | ≥ 20%
12 | 100 to 1000 nM | C[C@H](CCN1CCO[C@@H](C)C1)[C@H]1CC[C@H]2/C(=C/C=C3C[C@@H](O)C[C@H](O)C3)CCC[C@]12C [Compound D041, (1R,3R)-5-(2-((1R,3aS,7aR,E)-7a-methyl-1-((R)-4-((S)-2-methylmorpholino)butan-2-yl)octahydro-4H-inden-4-ylidene)ethylidene)cyclohexane-1,3-diol] | ≥ 20%
13 | 1 to 10 nM | C=C1[C@H](O)CC(=C/C=C2\CCC[C@]3(C)[C@@H]([C@H](C)CN4CCO[C@@H](C(F)F)C4)CC[C@@H]23)C[C@H]1O [Compound D008, (1R,3R)-5-(2-((1R,3aS,7aR,E)-1-((S)-1-((R)-2-(difluoromethyl)morpholino)propan-2-yl)-7a-methyloctahydro-4H-inden-4-ylidene)ethylidene)-2-methylenecyclohexane-1,3-diol] | ≥ 20%
